In article PMC4010497, “Synthesis and Evaluation of Fluorine-Substituted Phenyl Acetate Derivatives as Ultra-Short Recovery Sedative/Hypnotic Agents” (PLoS ONE, 2014):

System: mice
Experiment: animal or person
Type: in vivo
Details: mice
Method: All tests were performed during the light period. Groups of mice, rats and rabbits were injected intravenously (lateral tail vein) over 10 s with each dose of test compound, placed in separate boxes to reduce external stimuli and assessed for the loss of righting reflex. Dosing was performed using mg/kg scheme. A set of dose levels was chosen, and depending on whether the loss of righting reflex was observed, extra doses were introduced to provide data for the loss of righting reflex over a narrow dose range to allow potency calculations. From the percentage of mice, rats and rabbits in each group showing loss of righting reflex for ≥30 s, a probit analysis (SAS Institute) was performed to obtain an HD50 for each compound with 95% confidence limits.
Immediately following the injection, the mice, rats and rabbits were tested for loss of righting reflex. […] Once a loss was observed, the interval between the loss of righting reflex and the return to righting reflex was recorded. The anesthetized animals recovered righting reflexes spontaneously. To compare the duration of LORR of each compound at equipotent doses, groups of mice, rats and rabbits were injected with each compound at 2× HD50 over 10 s.
Time to walk was the time required after righting before mice and rabbits walked from the center to the periphery of a 30-cm diameter dise.
The rotarod test was conducted to evaluate the recovery to the motor coordination. Before the LORR test, mice were trained for 2 consecutive days. Trained mice could maintain their balance on rod for more than 2 mins. After the mice could walk from the center to the periphery of a 30-cm diameter dise, they were put on the rotarod. Mice were classified as behavioral recovery when, on being placed on the rod, they could maintain their balance for 20 s. The time to behavioral recovery was the time required after mice walked from the centre to the periphery of a 30-cm diameter disc before they could maintain their balance on rod for 20 s.

Question: `CCOc1cc(CC(=O)OCC(F)(F)F)ccc1OCC(=O)N(CC)CC` [Compound 5j, 2,2,2-trifluoroethyl 2-(4-(2-(diethylamino)-2-oxoethoxy)-3-ethoxyphenyl)acetate] was tested. Which ED50 (Mus musculus, IV over 10 s, 95% confidence limits, read-out: HD50 (the source's name)) did it give?
Answer: 24.6 mg/kg

Question: And the Time to walk (2× HD50)?
Answer: 17.3 ± 5.8 s

Question: What about the “time to behavioral recovery” value (2× HD50, rotarod) of the same compound?
Answer: 28.2 ± 6.4 s

Question: And the “Duration of LORR” value (IV 2× HD50, mean ± SD (n = 10))?
Answer: 59.1 ± 7.4 s

Question: And the Onset time (IV, mean ± SD (n = 10))?
Answer: 5.3 ± 1.2 s
